# Test results reported in patent US20110294952A1, “Optimized Drug Conjugates” (SynDevRX, priority 2010, published 2011).
# Columns and labels:
# [1] = Aqueous stability of carbamoylfumagillol in buffer; assay type: physicochemical; settings: for Natural Rate Constant: 37° C., 5 μM
# Procedure: At the appropriate time points, a 50 μL sample was withdrawn and diluted with three volumes of methanol containing propranolol as an internal standard (one solution was made for the entire study). The concentration of carbamoylfumagillol in the solution was analyzed by LC/MS/MS over seven days.
# [2] = tested on: A549 cells vs HUVEC cells; experiment: A549/HUVEC selectivity; assay type: cell-based, human; settings: ratio of IC50 values
# A549 cells [3] = experiment: A549 human non-small cell lung carcinoma cell viability assay (CellTiter-Glo); assay type: cell-based; settings: small molecules, 72 hours
# Procedure: (§1) Test compounds, small molecules or polymer conjugates, were dissolved in dimethyl sulfoxide to a stock concentration of 5 mg/mL. The test agents were then diluted to an intermediate concentration at 200 μg/mL in 10% DMSO. Further dilutions were completed serially 3-fold in 10% DMSO to produce 12 decreasing concentrations for in-vitro analysis. To achieve the target concentrations of the in-vitro assays, 1 μL of the intermediate drug preparation was delivered to the cells (seeded in a volume of 50 μL). The final DMSO concentration for the tests was 0.2% for all doses of test agent.
# Cells were exposed to twelve increasing concentrations of formulated test agent from 2×10^−6 to 4.0 μg/mL for 72 hours. Following 72 hour exposure, 25 μL it of CellTiter-Glo® Reagent was added to each well. The plates were incubated for 60 minutes at 37° C. in a humidified incubator. After incubation, luminescence was recorded using the Molecular Devices AnalystGT multi-mode reader.
# Data are expressed as the percent cell growth of the untreated (vehicle) control calculated from the luminescence signals. The surviving fraction of cells is determined by dividing the mean luminescence values of the test agents by the mean luminescence values of untreated control. […]
# HCT-116 cells = experiment: HCT-116 human colon tumor cell viability assay (CellTiter-Glo); assay type: cell-based; settings: small molecules, 72 hours, read-out: HCT116 IC50 Average
# Procedure: as §1
# (§2) Data are expressed as the percent cell growth of the untreated (vehicle) control calculated from the luminescence signals. The surviving fraction of cells is determined by dividing the mean luminescence values of the test agents by the mean luminescence values of untreated control. The inhibitory concentration value for the test agent(s) and control were estimated using Prism 5 software (GraphPad Software, Inc.) by curve-fitting the data using the non-linear regression analysis.
# The human tumor cell lines A549 and HCT-116 were obtained from American Type Culture Collection (Manassas, Va.). […]
# Cells were exposed to twelve increasing concentrations of formulated test agent from 2.3×10^−6 to 4.02 μg/mL for 72 hours. […] After incubation, luminescence was recorded using the Molecular Devices AnalystGT multi-mode reader.
# HUVEC cells = experiment: Human umbilical vein epithelial cell viability assay (CellTiter-Glo); assay type: cell-based; settings: small molecules, 72 hours
# Procedure: as §1, §2
# The Human umbilical vein epithelial cells (HUVEC) were obtained from Lonza (Basel, Switzerland). […]
# HUVEC cells were seeded at 1000 cells per well 24 hours prior to test agent exposure in a volume of 50 μL. […] After incubation, luminescence was recorded using the Molecular Devices AnalystGT multi-mode reader.
# [4] = In vivo pharmacokinetics of polymer conjugate; parameters: species or system Sprague-Dawley rats; settings: SDX-7539 single bolus IV 30 mg/kg, rat plasma
# Procedure: FIG. 6 is a graph showing the plasma concentration of the active metabolite, SDX-7539, as a function of time in Sprague-Dawley rats, to which either the polymer conjugate SDX-7320 (single bolus, intravenous injection, 200 mg/kg) or the small molecule SDX-7539 (single bolus, intravenous injection, 30 mg/kg) has been administered.
# The polymer conjugate, SDX-7320, or the in vivo release product, SDX-7539 were administered to Sprague-Dawley rats (N=3). Blood was collected over 48 hours after dosing to determine the plasma concentration of SDX-7539 by LC-MS/MS. The LLOQ for SDX-7539 was 2.5 nM. The terminal elimination half-life for SDX-7539 was estimated by fitting a linear regression to the ln [SDX-7539] versus time data. […] Cmax for the polymer is about 2% of the value for the small molecule.
# A549 cells [5] = assay type: in vitro ADME, human
# Procedure: Cells were treated as in Example 51 except that at the end of 72 hour exposure to test agent, the cells were frozen (−70° C.) and stored for subsequent evaluation by LC/MS.
molecule,measurement,setting,value
"CO[C@@H]1[C@H](OC(N)=O)CC[C@]2(CO2)[C@H]1[C@@]1(C)O[C@@H]1CC=C(C)C [Compound O-7127-1, Carbamoylfumagillol]",Natural Rate Constant,[1]; pH 4.0 sodium acetate buffer,0.0054 h⁻¹
same,Natural Rate Constant,[1]; pH 5.3 sodium acetate buffer,0.0017 h⁻¹
same,decomposition over the seven day period,"[1]; pH 5.3 to 8.0, 37° C., seven days",less than 20%
same,Natural Rate Constant,[1]; pH 6.7 potassium phosphate buffer,0.0010 h⁻¹
same,Natural Rate Constant,[1]; pH 8.0 potassium phosphate buffer,0.0011 h⁻¹
same,A549/HUVEC IC50 ratio,[2],33.63
"CO[C@@H]1[C@H](OC(=O)N[C@@H](C(N)=O)C(C)C)CC[C@]2(CO2)[C@H]1[C@@]1(C)O[C@@H]1CC=C(C)C [Compound O-7177, PPI-2458]",IC50,A549 cells [3],0.215 ng/mL
same,IC50,HCT-116 cells,0.236 ng/mL
same,IC50,HUVEC cells,0.101 ng/mL
CO[C@@H]1[C@H](OC(=O)NC2CCC(N)CC2)CC[C@]2(CO2)[C@H]1[C@@]1(C)O[C@@H]1CC=C(C)C (stereo partly drawn) [SDX-7539],Cmax,[4],~15 µM
same,half-life of SDX-7539,[4],10 to 15 min
poly[HPMA-co-MA-GFLG-N-(6-aminohexyl)carbamoylfumagillol],metabolites identified from treated cells,A549 cells [5],"N-(6-aminohexyl)carbamoylfumagillol, fumagill-6-yl {6-[(aminoacetyl)amino]hexyl}carbamate, and the epoxide hydrolysis product, (3S,7aR)-7a-(hydroxymethyl)-4-methoxy-3-methyl-2-(3-methylbut-2-en-1-yl)octahydro-1-benzofuran-3-ol-5-yl 6-aminohexyl carbamate"
